Data on one compound can be found in patent US20150252048A1, “SUBSTITUTED N-(3-PYRIMIDIN-4-YL)PHENYL)ACRYLAMIDE ANALOGS AS TYROSINE RECEPTOR KINASE BTK INHIBITORS” (UNIVERSITY OF UTAH RESEARCH FOUNDATION, priority 2012, published 2015).

One data set has as its target BTK (Homo sapiens, UniProt Q06187). Briefly: Specific kinase IC50 assay. The settings on record: 1 μM ATP, 10-dose, duplicate. The format is biochemical. The method, then: In addition, the compound IC50 was determined in six specific kinase assays. The kinases that the compound was assayed against were as follows: BMX/ETK, BTK, EGFR (T790M), ERBB4/HER4, JAK3, and TEC. The assays were carried out in the presence of 1 μM ATP and were conducted in a 10-dose format in duplicate with three-fold serial dilutions starting at 10 μM. The calculated IC50s are shown in Table IX, and representative dose response curves from these assays are shown in FIG. 5 (Panels A: BMX/ETK kinase assay; Panel B: BTK kinase assay; Panel C: EGFR (T790M) kinase assay; Panel D: ERBB4/HER4 kinase assay; Panel E: JAK3 kinase assay; and Panel F: TEC kinase assay). The data in Figure show the individual assay duplicate assay results a line fit to the data; 100% activity is the activity in the […] of test compound. […].

The target in the next data set is T1, Cytochrome P450 1A2 (Homo sapiens, UniProt P05177).
T1 construct: purchased Invitrogen
T1 sequence (P05177 1-516): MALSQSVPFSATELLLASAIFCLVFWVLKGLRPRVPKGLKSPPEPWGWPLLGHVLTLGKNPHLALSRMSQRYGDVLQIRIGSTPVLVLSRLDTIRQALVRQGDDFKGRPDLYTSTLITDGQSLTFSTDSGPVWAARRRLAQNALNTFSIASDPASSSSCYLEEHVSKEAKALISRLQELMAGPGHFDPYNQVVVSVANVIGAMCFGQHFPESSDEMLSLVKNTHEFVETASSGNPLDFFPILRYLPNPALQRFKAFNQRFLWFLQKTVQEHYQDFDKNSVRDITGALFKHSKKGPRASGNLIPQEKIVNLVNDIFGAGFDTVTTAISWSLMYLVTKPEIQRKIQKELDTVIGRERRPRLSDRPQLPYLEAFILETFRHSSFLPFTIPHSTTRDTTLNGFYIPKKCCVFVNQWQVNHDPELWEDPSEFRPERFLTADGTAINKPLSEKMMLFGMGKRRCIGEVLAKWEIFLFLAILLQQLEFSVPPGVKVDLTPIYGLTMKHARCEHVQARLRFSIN
The experiment in a line: Cytochrome P450 inhibition (P450 BACULOSOMES, Vivid substrates). To be noted: 10-point titration, duplicate; read-out: CYP Activity 1A2 IC50. The format is in vitro ADME. The method, then: (§1) A number of ADME properties were determined for a representative disclosed compound, compound 3 (N-(3-(6-((3-morpholinophenyl)amino)-1H-pyrazolo[3,4-d]pyrimidin-4-yl)phenyl)acrylamide), which corresponds to compound 3 in Table I. Drug inhibition of cytochrome P450 enzymes is a common cause of drug-drug intereaction issues in the clinic. The compound was tested in assays for commonly screened Cytochrome P450s, specifically the 1A2, 2C9, 2C19, 2D6, and 3A4 isoforms. The IC50 determinations were performed in duplicate using 10-point titrations of test compound using Invitrogen P450 BACULOSOMES® reagents and Vivid® CyP450 Screening substrates.

The next data set addresses T2, Cytochrome P450 2C19 (Homo sapiens, UniProt P33261).
T2 construct: purchased Invitrogen
The data set is described as above. The format is in vitro ADME. To be noted: 10-point titration, duplicate; read-out: CYP Activity 2C19 IC50. The method, then:
as §1

Another data set concerns the target T3, Cytochrome P450 2D6 (Homo sapiens, UniProt P10635).
T3 construct: purchased Invitrogen
The data set is described as above. The format is in vitro ADME. The settings on record: 10-point titration, duplicate; read-out: CYP Activity 2D6 IC50. As to the method: as §1

Another data set deals with T4, Cytochrome P450 2C9 (Homo sapiens, UniProt P11712).
T4 construct: purchased Invitrogen
T4 sequence (P11712 whole entry): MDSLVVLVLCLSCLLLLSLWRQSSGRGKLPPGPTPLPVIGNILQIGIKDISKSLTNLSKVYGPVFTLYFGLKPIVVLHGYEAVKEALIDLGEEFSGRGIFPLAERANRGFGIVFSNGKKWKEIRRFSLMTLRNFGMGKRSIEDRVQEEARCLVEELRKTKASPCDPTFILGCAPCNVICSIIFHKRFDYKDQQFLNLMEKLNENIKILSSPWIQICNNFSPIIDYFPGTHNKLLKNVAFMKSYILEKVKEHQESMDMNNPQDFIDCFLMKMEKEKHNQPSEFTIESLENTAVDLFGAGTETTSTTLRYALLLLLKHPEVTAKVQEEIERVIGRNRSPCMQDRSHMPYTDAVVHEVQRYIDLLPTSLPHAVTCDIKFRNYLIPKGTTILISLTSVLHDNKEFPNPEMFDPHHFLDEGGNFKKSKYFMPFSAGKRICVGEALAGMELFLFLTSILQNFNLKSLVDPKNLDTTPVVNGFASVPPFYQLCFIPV
The description is as above. To be noted: 10-point titration, duplicate; read-out: CYP Activity 2C9 IC50. The format is in vitro ADME. The method, then:
as §1

A further data set addresses T5, Cytochrome P450 3A4 (Homo sapiens, UniProt P08684).
T5 construct: purchased Invitrogen
Described as above. The format is in vitro ADME. As to the method: as §1

Data set [1] can be described thus: Microsomal stability. The format is in vitro ADME, mouse. To be noted: for Compound Remaining: mouse microsomes 0.5 mg protein/mL, 1 μM; for half-life at 1 μM: mouse, microsomes. The method, then: (§2) Data were also obtained for the stability of Compound 3 when incubated with a microsomal preparation. Drug metabolism can occur, at least in part, in cellular microsomes, and thus the assay assesses the stability of drug to metabolic modification. The concentration of compound 3 was 1 μM in the assay system and the indicated microsomes were present at 0.5 mg total protein per milliliter. The concentration of intact drug was determined at the indicated timepoints using a LC-MS/MS assay. The enzyme activity of the microsomes used in this study were assessed using a positive control, testosterone.

A short description of data set [2]: Microsomal stability. The format is in vitro ADME, rat. To be noted: for Compound Remaining: rat microsomes 0.5 mg protein/mL, 1 μM. As to the method: as §2
In another data set the target is T6, HERG channel (Homo sapiens, UniProt Q12809).
T6 construct: purchased Invitrogen; host or cells: membrane preparation with overexpressed HERG channels
T6 sequence (Q12809 whole entry): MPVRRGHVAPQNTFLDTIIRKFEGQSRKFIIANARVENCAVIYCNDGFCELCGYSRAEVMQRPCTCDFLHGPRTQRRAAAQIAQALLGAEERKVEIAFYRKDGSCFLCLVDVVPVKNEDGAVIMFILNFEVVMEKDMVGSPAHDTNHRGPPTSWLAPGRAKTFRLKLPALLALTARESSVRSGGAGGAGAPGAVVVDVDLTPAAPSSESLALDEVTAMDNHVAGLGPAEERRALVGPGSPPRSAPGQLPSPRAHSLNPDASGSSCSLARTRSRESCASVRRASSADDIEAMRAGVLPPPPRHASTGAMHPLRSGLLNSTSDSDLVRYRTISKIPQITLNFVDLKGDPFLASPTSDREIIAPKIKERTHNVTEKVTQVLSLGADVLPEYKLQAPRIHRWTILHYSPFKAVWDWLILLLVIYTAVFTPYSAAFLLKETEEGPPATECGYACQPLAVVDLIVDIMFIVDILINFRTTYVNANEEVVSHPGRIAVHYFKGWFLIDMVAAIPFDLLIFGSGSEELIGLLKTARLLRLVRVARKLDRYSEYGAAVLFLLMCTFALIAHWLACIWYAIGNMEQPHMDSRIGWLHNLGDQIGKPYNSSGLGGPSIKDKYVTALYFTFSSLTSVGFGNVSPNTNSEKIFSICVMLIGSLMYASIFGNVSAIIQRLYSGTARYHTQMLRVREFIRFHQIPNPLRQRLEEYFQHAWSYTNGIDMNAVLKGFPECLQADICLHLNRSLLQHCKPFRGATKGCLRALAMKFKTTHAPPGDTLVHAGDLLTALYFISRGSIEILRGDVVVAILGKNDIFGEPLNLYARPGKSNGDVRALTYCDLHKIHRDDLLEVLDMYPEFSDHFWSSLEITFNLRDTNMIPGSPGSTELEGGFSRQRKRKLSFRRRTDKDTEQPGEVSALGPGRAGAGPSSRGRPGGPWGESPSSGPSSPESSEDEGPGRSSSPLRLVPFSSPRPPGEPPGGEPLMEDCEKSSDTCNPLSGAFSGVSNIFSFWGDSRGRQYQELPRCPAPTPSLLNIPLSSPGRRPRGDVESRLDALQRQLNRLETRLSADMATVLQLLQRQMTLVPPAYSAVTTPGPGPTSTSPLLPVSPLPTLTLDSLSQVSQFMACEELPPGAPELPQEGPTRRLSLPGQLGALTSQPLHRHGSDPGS
Briefly: Predictor hERG Fluorescence Polarization Assay. The settings on record: membrane preparation with overexpressed HERG channels, 10-point, duplicate. The format is binding. As to the method: The activity of a representative disclosed compound, compound 3 (N-(3-(6-((3-morpholinophenyl)amino)-1H-pyrazolo[3,4-d]pyrimidin-4-yl)phenyl)acrylamide), was evaluated in a HERG channel assay. Briefly, the compounds were assessed using the Invitrogen Predictor™ hERG Fluorescence Polarization Assay with excitation at 530 nm and emission at 580 nm using a membrane preparation with overexpressed HERG channels. The compound was tested in a 10-point dose response curves in duplicate and using E-4031 (N-[4-[[1-[2-(6-Methyl-2-pyridinyl)ethyl]-4-piperidinyl]carbonyl]phenyl]methanesulfonamide dihydrochloride), a known HERG channel inhibitor, as an assay positive control. The data are shown in FIG. 6, and the figure showns the average inhibition versus the compound.

Where two headings read alike, the source gives them in different places.

T5 sequence (P08684 whole entry): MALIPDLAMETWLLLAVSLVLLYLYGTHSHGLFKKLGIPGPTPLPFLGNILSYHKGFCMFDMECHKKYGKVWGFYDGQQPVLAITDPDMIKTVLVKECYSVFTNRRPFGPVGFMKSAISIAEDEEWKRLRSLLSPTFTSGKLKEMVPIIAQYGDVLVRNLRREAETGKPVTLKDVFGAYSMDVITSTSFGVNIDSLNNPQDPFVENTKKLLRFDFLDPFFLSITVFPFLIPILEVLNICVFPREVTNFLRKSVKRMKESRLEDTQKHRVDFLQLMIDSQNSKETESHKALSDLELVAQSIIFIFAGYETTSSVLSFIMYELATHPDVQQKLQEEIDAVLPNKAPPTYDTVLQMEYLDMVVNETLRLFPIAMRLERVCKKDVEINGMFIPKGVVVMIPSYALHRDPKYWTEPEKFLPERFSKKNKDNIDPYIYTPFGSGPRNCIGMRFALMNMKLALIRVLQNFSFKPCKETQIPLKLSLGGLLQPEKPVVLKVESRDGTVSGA
Chain of BTK (Q06187 whole entry): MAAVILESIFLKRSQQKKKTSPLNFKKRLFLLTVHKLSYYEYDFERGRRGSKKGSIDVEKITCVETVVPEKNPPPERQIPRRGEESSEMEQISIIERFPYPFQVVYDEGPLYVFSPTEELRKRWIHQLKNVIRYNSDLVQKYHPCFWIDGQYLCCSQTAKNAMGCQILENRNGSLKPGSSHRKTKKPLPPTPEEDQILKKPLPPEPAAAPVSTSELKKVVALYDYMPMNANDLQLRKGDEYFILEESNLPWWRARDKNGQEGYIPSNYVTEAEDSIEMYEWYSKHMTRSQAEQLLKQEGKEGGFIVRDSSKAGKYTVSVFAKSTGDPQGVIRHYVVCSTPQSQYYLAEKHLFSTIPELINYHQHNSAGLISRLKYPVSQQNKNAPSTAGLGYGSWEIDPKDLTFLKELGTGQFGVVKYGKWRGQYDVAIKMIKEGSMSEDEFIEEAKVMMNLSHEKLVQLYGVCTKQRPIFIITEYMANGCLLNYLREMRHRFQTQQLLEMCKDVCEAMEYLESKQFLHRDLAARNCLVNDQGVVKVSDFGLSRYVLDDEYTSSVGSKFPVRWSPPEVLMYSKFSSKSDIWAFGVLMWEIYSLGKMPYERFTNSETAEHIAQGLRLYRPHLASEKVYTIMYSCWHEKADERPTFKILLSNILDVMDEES
T2 sequence (P33261 whole entry): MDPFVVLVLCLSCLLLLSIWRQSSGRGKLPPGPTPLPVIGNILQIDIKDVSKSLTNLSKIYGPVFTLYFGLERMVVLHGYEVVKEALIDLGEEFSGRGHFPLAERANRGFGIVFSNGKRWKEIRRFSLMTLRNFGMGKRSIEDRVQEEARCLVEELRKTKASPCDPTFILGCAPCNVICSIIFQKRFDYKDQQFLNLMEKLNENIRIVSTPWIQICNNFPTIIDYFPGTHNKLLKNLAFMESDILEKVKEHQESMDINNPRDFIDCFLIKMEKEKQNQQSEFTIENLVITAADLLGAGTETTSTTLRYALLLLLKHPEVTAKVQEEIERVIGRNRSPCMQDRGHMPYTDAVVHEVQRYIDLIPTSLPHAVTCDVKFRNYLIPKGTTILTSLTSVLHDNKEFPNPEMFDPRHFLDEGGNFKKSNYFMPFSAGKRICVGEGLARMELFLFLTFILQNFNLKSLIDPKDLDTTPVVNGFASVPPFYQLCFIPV
T3 sequence (P10635 whole entry): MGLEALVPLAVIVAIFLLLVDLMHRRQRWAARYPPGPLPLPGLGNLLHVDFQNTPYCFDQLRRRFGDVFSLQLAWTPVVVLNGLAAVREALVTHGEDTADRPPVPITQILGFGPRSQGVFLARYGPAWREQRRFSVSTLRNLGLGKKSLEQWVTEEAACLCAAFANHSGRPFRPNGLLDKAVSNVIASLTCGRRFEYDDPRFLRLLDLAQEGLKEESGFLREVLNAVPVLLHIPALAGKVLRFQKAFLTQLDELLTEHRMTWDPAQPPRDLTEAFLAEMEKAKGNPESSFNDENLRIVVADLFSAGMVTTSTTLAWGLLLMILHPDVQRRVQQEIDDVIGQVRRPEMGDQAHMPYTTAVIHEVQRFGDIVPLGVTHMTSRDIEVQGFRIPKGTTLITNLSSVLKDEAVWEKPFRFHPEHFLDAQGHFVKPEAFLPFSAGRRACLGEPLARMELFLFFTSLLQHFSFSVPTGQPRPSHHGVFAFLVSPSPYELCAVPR

As for `C=CC(=O)Nc1cccc(-c2nc(Nc3cccc(N4CCOCC4)c3)nc3[nH]ncc23)c1` [Compound 3, N-(3-(6-((3-morpholinophenyl)amino)-1H-pyrazolo[3,4-d]pyrimidin-4-yl)phenyl)acrylamide], the IC50 against BTK was 12.3 nM; on Cytochrome P450 1A2 it was at least 10000 nM; on Cytochrome P450 2C19 it was 2630 nM; on Cytochrome P450 2D6 it was at least 10000 nM; on Cytochrome P450 2C9, 2170 nM; on Cytochrome P450 3A4 (BOMCC substrate, read-out: CYP Activity 3A4/BOMCC IC50), 670 nM. In addition, the IC50 at Cytochrome P450 3A4 (DBOMF substrate, read-out: CYP Activity 3A4/DBOMF IC50) was 2050 nM; on HERG channel it was over 10000 nM. Further, the “Compound Remaining” value in the data set “Microsomal stability [1]” (0 min) is reported as 100 % of initial amount; in “Microsomal stability [1]” (10 min), 24.3 % of initial amount; in the data set “Microsomal stability [1]” (20 min), 6.12 % of initial amount; in the data set “Microsomal stability [1]” (30 min) it was 1.62 % of initial amount; in the data set “Microsomal stability [1]” (60 min), 0.72 % of initial amount; in “Microsomal stability [2]” (0 min), 100 % of initial amount. The “Compound Remaining” value in the data set “Microsomal stability [2]” (10 min) is on record as 55.2 % of initial amount; in “Microsomal stability [2]” (20 min), 33.6 % of initial amount; in “Microsomal stability [2]” (30 min), 20.5 % of initial amount; in “Microsomal stability [2]” (60 min), 5.13 % of initial amount. In addition, the microsomal CLint at 1 μM in the data set “Microsomal stability [1]” (mouse microsomes, read-out: CLinit (intrinsic clearance)) came to 160 µL/min/mg; in the data set “Microsomal stability [2]” (rat microsomes, read-out: CLinit (intrinsic clearance)) it was 100 µL/min/mg. The half-life at 1 μM in “Microsomal stability [1]” (mouse microsomes, expressed as < shortest incubation time, read-out: t1/2) is under 10 min; in “Microsomal stability [1]” (mouse microsomes, read-out: t1/2, calculated half-life in parentheses), 8.6 min; in “Microsomal stability [2]” (rat microsomes), 14 min.
